According to patent US20060069132A1, “Azolecarboxamide herbicides” (priority 2004, published 2006):

Experiments:
canarygrass = experiment: Test C postemergence herbicide test; assay type: in vivo, Phalaris minor
Experimental: (§1) At the same time, plants selected from these crop and weed species and also winter barley (Hordeum vulgare L.), blackgrass (Alopecurus myosuroides Huds.), canarygrass (Phalaris minor Retz.), chickweed (Stellaria media (L.) Vill.), downy bromegrass (Bromus tectorum L.), green foxtail (Setaria viridis (L.) Beauv.), Italian ryegrass (Lolium multiflorum Lam.), wheat (Triticum aestivum L.), wild oat (Avenafatua L.) and windgrass (Apera spica-venti (L.) Beauv.) were treated with postemergence applications of some of the test chemicals formulated in the same manner. Plants ranged in height from 2 to 18 cm (1- to 4-leaf stage) for postemergence treatments. Plant species in the flooded paddy test consisted of rice (Oryza sativa), smallflower umbrella sedge (Cyperus difformis L.), ducksalad (Heteranthera limosa (Sw.) Willd.) and barnyardgrass (Echinochloa crus-galli (L.) Beauv.) grown to the 2-leaf stage for testing. Treated plants and controls were maintained in a greenhouse for 12 to 14 days, after which time all species were compared to controls and visually evaluated. Plant response ratings, summarized in Table C, are based on a scale of 0 to 100 where 0 is no effect and 100 is complete control. A dash (-) response means no test result.

Italian ryegrass = experiment: Test C postemergence herbicide test; assay type: in vivo, Lolium multiflorum
Experimental: as §1

wheat = experiment: Test C postemergence herbicide test; assay type: in vivo, Triticum aestivum
Experimental: as §1

downy bromegrass [1] = experiment: Test C postemergence herbicide test; assay type: in vivo, Bromus tectorum
Experimental: as §1

downy bromegrass [2] = experiment: Test E pre-/postemergence herbicide test; assay type: in vivo, Bromus tectorum; settings: Preemergence
Description: (§2) Seeds of plant species selected from bipinnate beggarticks (Bidens bipinnata L.), hairy beggarticks (Bidens radiata Thuill.), bermudagrass (Cynodon dactylon (L.) Pers.), Surinam grass (Urochloa decumbens (Staph) R. D. Webster, previously named Brachiaria decumbens Stapf), large crabgrass (Digitaria sanguinalis (L.) Scop.), green foxtail (Setaria viridis (L.) P. Beauv.), goosegrass (Eleusine indica (L.) Gaertn.), johnsongrass (Sorghum halepense (L.) Pers.), kochia (Kochia scoparia (L.) Schrad.), pitted morningglory (Ipomoea lacunosa L.), purple nutsedge (Cyperus rotundus L.), common ragweed (Ambrosia elatior L.), mustard (Brassica nigra (L.) W. D. J. Koch), guineagrass (Panicum maximum Jacq.), dallisgrass (Paspalum dilatatum Poir.), barnyardgrass (Echinochloa crus-galli (L). P. Beauv.), southern sandbur (Cenchrus echinatus L.), common sowthistle (Sonchus oleraceous L.), prickly sida (Sida spinosa L.), Italian ryegrass (Lolium multiflorum Lam.), common purslane (Portulaca oleracea L.), broadleaf signalgrass (Brachiaria platyphylla (Griseb.) Nash), common groundsel (Senecio vulgaris L.), common chickweed (Stellaria media (L.) Vill/Cyr.), tropical spiderwort (Commelina benghalensis L.), annual bluegrass (Poa annua L.), downy bromegrass (Bromus tectorum L.), itchgrass (Rottboellia cochinchinensis (L.) L.f.), quackgrass (Elytrigia repens (L.) Nevski), Canada horseweed (Erigeron Canadensis L.), field bindweed (Convolvulus arvensis L.), spotted spurge (Euphorbia maculata L.), common mallow (Malva sylvestris (=s silvestris) L.), and Russian thistle (Salsola kali L. ssp. Ruthenica (Iljin) Soo) were planted and treated preemergence with test chemicals formulated in a non-phytotoxic solvent mixture which included a surfactant.
(§3) At the same time, plants selected from these weed species were treated with postemergence applications of some of the test chemicals formulated in the same manner. Plants ranged in height from 2 to 18 cm (1- to 4-leaf stage) for postemergence treatments. Treated plants and controls were maintained in a greenhouse for 12 to 14 days, after which time all species were compared to controls and visually evaluated. Plant response ratings, summarized in Table E, are based on a scale of 0 to 100 where 0 is no effect and 100 is complete control. A dash (-) response means no test result.

mustard = experiment: Test E pre-/postemergence herbicide test; assay type: in vivo, Brassica nigra; settings: Preemergence
Description: as §2, §3

johnsongrass = experiment: Test E pre-/postemergence herbicide test; assay type: in vivo, Sorghum halepense; settings: Preemergence
Description: as §2, §3

goosegrass = experiment: Test E pre-/postemergence herbicide test; assay type: in vivo, Eleusine indica; settings: Preemergence
Description: as §2, §3

purple nutsedge = experiment: Test E pre-/postemergence herbicide test; assay type: in vivo, Cyperus rotundus; settings: Preemergence, 62 g ai/ha; scale 0 to 100
Description: as §2, §3

common mallow = experiment: Test E pre-/postemergence herbicide test; assay type: in vivo, Malva sylvestris; settings: Preemergence
Description: as §2, §3

tropical spiderwort = experiment: Test E pre-/postemergence herbicide test; assay type: in vivo, Commelina benghalensis; settings: Preemergence
Description: as §2, §3

annual bluegrass = experiment: Test E pre-/postemergence herbicide test; assay type: in vivo, Poa annua; settings: Preemergence
Description: as §2, §3

pitted morningglory = experiment: Test E pre-/postemergence herbicide test; assay type: in vivo, Ipomoea lacunosa; settings: Preemergence
Description: as §2, §3

[3] = Postemergence, 500 g ai/ha, scale 0 to 100
[4] = Postemergence, 250 g ai/ha, scale 0 to 100, 0 no effect, 100 complete control
[5] = postemergence, 125 g ai/ha, scale 0 to 100
[6] = postemergence, 62 g ai/ha, scale 0 to 100
[7] = postemergence, 31 g ai/ha, scale 0 to 100
[8] = Postemergence, 500 g ai/ha, scale 0 to 100, 0 no effect, 100 complete control
[9] = 250 g ai/ha, scale 0 (no effect) to 100 (complete control)
[10] = 500 g ai/ha, scale 0 (no effect) to 100 (complete control)

## CCn1nc(C(C)(C)C)cc1C(=O)Nc1cccc(OC(F)F)c1 [Compound 332]
canarygrass; [3]
  Canarygrass plant response rating: 70
canarygrass; [4]
  Plant response rating, Canarygrass: 60
canarygrass; [5]
  Plant response rating, Canarygrass: 45
canarygrass; [6]
  Plant response rating, Canarygrass: 35
Italian ryegrass; [3]
  Ryegrass, Italian plant response rating: 70
Italian ryegrass; [4]
  Plant response rating, Ryegrass, Italian: 70
Italian ryegrass; [5]
  Plant response rating, Ryegrass, Italian: 60
Italian ryegrass; [6]
  Plant response rating, Ryegrass, Italian: 60
wheat; [3]
  Wheat plant response rating: 35
wheat; [4]
  Plant response rating, Wheat: 35
wheat; [5]
  Plant response rating, Wheat: 30
wheat; [6]
  Plant response rating, Wheat: 30
Downy bromegrass [1]; [3]
  Bromegrass, Downy plant response rating: 65
Downy bromegrass [1]; [4]
  Plant response rating, Bromegrass, Downy: 50
Downy bromegrass [1]; [5]
  Plant response rating, Bromegrass, Downy: 40
Downy bromegrass [1]; [6]
  Plant response rating, Bromegrass, Downy: 35

## CCn1nc(C(C)(C)C)cc1C(=O)Nc1cc(C(=S)N(C)C)ccn1 [Compound 334]
canarygrass; [4]
  Plant response rating, Canarygrass: 45
canarygrass; [5]
  Plant response rating, Canarygrass: 35
canarygrass; [7]
  Plant response rating, Canarygrass: 20
canarygrass; [6]
  Plant response rating, Canarygrass: 25
Italian ryegrass; [4]
  Plant response rating, Ryegrass, Italian: 45
Italian ryegrass; [5]
  Plant response rating, Ryegrass, Italian: 35
Italian ryegrass; [6]
  Plant response rating, Ryegrass, Italian: 30
wheat; [4]
  Plant response rating, Wheat: 75
wheat; [5]
  Plant response rating, Wheat: 75
wheat; [6]
  Plant response rating, Wheat: 65
Downy bromegrass [1]; [4]
  Plant response rating, Bromegrass, Downy: 45
Downy bromegrass [1]; [5]
  Plant response rating, Bromegrass, Downy: 35
Downy bromegrass [1]; [7]
  Plant response rating, Bromegrass, Downy: 20
Downy bromegrass [1]; [6]
  Plant response rating, Bromegrass, Downy: 30

## CCNC(=O)c1ccc(F)c(NC(=O)c2c3c(nn2CC)C(C)(C)CC3)c1 [Compound 353]
canarygrass; [4]
  Plant response rating, Canarygrass: 10
canarygrass; [8]
  Plant response rating, Canarygrass: 20
canarygrass; [5]
  Plant response rating, Canarygrass: 10
canarygrass; [6]
  Plant response rating, Canarygrass: 0
Italian ryegrass; [4]
  Plant response rating, Ryegrass, Italian: 15
Italian ryegrass; [8]
  Plant response rating, Ryegrass, Italian: 20
Italian ryegrass; [5]
  Plant response rating, Ryegrass, Italian: 15
Italian ryegrass; [6]
  Plant response rating, Ryegrass, Italian: 10
wheat; [4]
  Plant response rating, Wheat: 30
wheat; [8]
  Plant response rating, Wheat: 35
wheat; [5]
  Plant response rating, Wheat: 15
wheat; [6]
  Plant response rating, Wheat: 10
Downy bromegrass [1]; [4]
  Plant response rating, Bromegrass, Downy: 30
Downy bromegrass [1]; [8]
  Plant response rating, Bromegrass, Downy: 35
Downy bromegrass [1]; [5]
  Plant response rating, Bromegrass, Downy: 20
Downy bromegrass [1]; [6]
  Plant response rating, Bromegrass, Downy: 10

## CCOC(=O)c1cccc(NC(=O)c2nn(C(C)(C)CC)nc2CC)c1 [Compound 375]
canarygrass; [4]
  Plant response rating, Canarygrass: 35
canarygrass; [5]
  Plant response rating, Canarygrass: 35
canarygrass; [7]
  Plant response rating, Canarygrass: 30
canarygrass; [6]
  Plant response rating, Canarygrass: 30
Italian ryegrass; [5]
  Plant response rating, Ryegrass, Italian: 65
Italian ryegrass; [6]
  Plant response rating, Ryegrass, Italian: 65
wheat; [5]
  Plant response rating, Wheat: 30
wheat; [6]
  Plant response rating, Wheat: 25
Downy bromegrass [1]; [4]
  Plant response rating, Bromegrass, Downy: 60
Downy bromegrass [1]; [5]
  Plant response rating, Bromegrass, Downy: 60
Downy bromegrass [1]; [7]
  Plant response rating, Bromegrass, Downy: 40
Downy bromegrass [1]; [6]
  Plant response rating, Bromegrass, Downy: 60

## CCc1nn(C(C)(C)C)nc1C(=O)Nc1cccc(C(=O)N(C)CC)c1 [Compound 384]
Downy bromegrass [2]; 62 g ai/ha, scale 0 to 100
  Plant response rating, Bromegrass, Downy: 20
Downy bromegrass [2]; 125 g ai/ha, scale 0 to 100
  Plant response rating, Bromegrass, Downy: 40
Downy bromegrass [2]; [9]
  Plant response rating, Bromegrass, Downy: 40
Downy bromegrass [2]; [10]
  Plant response rating, Bromegrass, Downy: 90
mustard; 62 g ai/ha, scale 0 to 100
  Plant response rating, Black Mustard: 60
mustard; 125 g ai/ha, scale 0 to 100
  Plant response rating, Black Mustard: 80
mustard; [9]
  Plant response rating, Black Mustard: 85
mustard; [10]
  Plant response rating, Black Mustard: 100
johnsongrass; 62 g ai/ha, scale 0 to 100
  Plant response rating, Johnsongrass: 40
johnsongrass; 125 g ai/ha, scale 0 to 100
  Plant response rating, Johnsongrass: 75
johnsongrass; [9]
  Plant response rating, Johnsongrass: 80
johnsongrass; [10]
  Plant response rating, Johnsongrass: 85
goosegrass; 62 g ai/ha, scale 0 to 100
  Plant response rating, Goosegrass: 60
goosegrass; 125 g ai/ha, scale 0 to 100
  Plant response rating, Goosegrass: 80
goosegrass; [9]
  Plant response rating, Goosegrass: 85
goosegrass; [10]
  Plant response rating, Goosegrass: 95
canarygrass; [4]
  Plant response rating, Canarygrass: 40
canarygrass; [5]
  Plant response rating, Canarygrass: 35
canarygrass; [7]
  Plant response rating, Canarygrass: 20
canarygrass; [6]
  Plant response rating, Canarygrass: 30
Italian ryegrass; [5]
  Plant response rating, Ryegrass, Italian: 55
Italian ryegrass; [6]
  Plant response rating, Ryegrass, Italian: 45
wheat; [5]
  Plant response rating, Wheat: 20
wheat; [6]
  Plant response rating, Wheat: 10
Purple nutsedge
  Plant response rating, Nutsedge, Purple: 60
Common mallow; 62 g ai/ha, scale 0 to 100
  Plant response rating, Mallow: 50
Common mallow; 125 g ai/ha, scale 0 to 100
  Plant response rating, Mallow: 70
Common mallow; [9]
  Plant response rating, Mallow: 70
Common mallow; [10]
  Plant response rating, Mallow: 95
Tropical spiderwort; 125 g ai/ha, scale 0 to 100
  Plant response rating, Spiderwort: 30
Tropical spiderwort; [9]
  Plant response rating, Spiderwort: 60
Tropical spiderwort; [10]
  Plant response rating, Spiderwort: 95
Annual bluegrass; 62 g ai/ha, scale 0 to 100
  Plant response rating, Bluegrass: 50
Annual bluegrass; 125 g ai/ha, scale 0 to 100
  Plant response rating, Bluegrass: 75
Annual bluegrass; [9]
  Plant response rating, Bluegrass: 80
Annual bluegrass; [10]
  Plant response rating, Bluegrass: 95
Downy bromegrass [1]; [4]
  Plant response rating, Bromegrass, Downy: 55
Downy bromegrass [1]; [5]
  Plant response rating, Bromegrass, Downy: 45
Downy bromegrass [1]; [7]
  Plant response rating, Bromegrass, Downy: 30
Downy bromegrass [1]; [6]
  Plant response rating, Bromegrass, Downy: 40
Pitted morningglory; 62 g ai/ha, scale 0 to 100
  Plant response rating, Morningglory: 10
Pitted morningglory; 125 g ai/ha, scale 0 to 100
  Plant response rating, Morningglory: 60
Pitted morningglory; [9]
  Plant response rating, Morningglory: 80
Pitted morningglory; [10]
  Plant response rating, Morningglory: 90

## C=CCNC(=O)c1cccc(NC(=O)c2nn(C(C)(C)C)nc2CC)c1 [Compound 414]
canarygrass; [4]
  Plant response rating, Canarygrass: 50
canarygrass; [8]
  Plant response rating, Canarygrass: 60
canarygrass; [5]
  Plant response rating, Canarygrass: 45
canarygrass; [6]
  Plant response rating, Canarygrass: 45
Italian ryegrass; [8]
  Plant response rating, Ryegrass, Italian: 60
Italian ryegrass; [5]
  Plant response rating, Ryegrass, Italian: 55
Italian ryegrass; [6]
  Plant response rating, Ryegrass, Italian: 50
wheat; [8]
  Plant response rating, Wheat: 30
wheat; [5]
  Plant response rating, Wheat: 10
wheat; [6]
  Plant response rating, Wheat: 10
Downy bromegrass [1]; [4]
  Plant response rating, Bromegrass, Downy: 55
Downy bromegrass [1]; [8]
  Plant response rating, Bromegrass, Downy: 60
Downy bromegrass [1]; [5]
  Plant response rating, Bromegrass, Downy: 45
Downy bromegrass [1]; [6]
  Plant response rating, Bromegrass, Downy: 40
